The text below walks through data of patent publication US6004957A, “Sulfonamide inhibitors of aspartyl protease” (Vertex Pharmaceuticals, Incorporated, priority 1998, dated 1999).

The target in one experiment is HIV-1 protease (Human immunodeficiency virus type 1 group M subtype B, UniProt P04585). The experiment is described as follows: biochemical. As to conditions: Table VII. The text has this: We measured the inhibition constants of the compounds listed in Table VII against HIV-1 protease using the above-cited method of Pennington et al.
Experiment [1] has as its system HIVIIIb in CCRM-CEM cells. Put plainly: Anti-viral potency in CCRM-CEM cells acutely infected with HIVIIIb (method of Meek et al.), extracellular p24 antigen. The format is cell-based, HIV-1. As to conditions: Human immunodeficiency virus 1, HIV replication, Table VIII, read-out: IC90 Range. A digest of the protocol:
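Compounds in DMSO were added to CCRM-CEM cells (CD4+ human T-cell lymphoma) acutely infected with HIVIIIb following Meek et al. Inhibition of viral replication was determined from extracellular p24 antigen concentration measured by enzyme immunoassay.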

Consider `CC(C)CN(C[C@@H](O)[C@H](Cc1ccccc1)NC(=O)OCc1ccccn1)S(=O)(=O)c1ccc(F)c(F)c1` [Compound 108], for which, on HIV-1 protease, the Ki (in general, the dissociation constant of the complex between target and ligand, obtained from inhibition or displacement) was determined as 2 nM. In addition, the IC90 (in general, the concentration needed for an effect of 90%) in experiment [1] was in the range of 1 to 10 µM.
For `CC(C)CN(C[C@@H](O)[C@H](Cc1ccccc1)NC(=O)OC(C)(C)C)S(=O)(=O)c1cccc(F)c1` [Compound 50], in that order: 11 nM and 1 to 10 µM.
